Results taken from patent US11186617B2, “Epitope” (HOYU CO., LTD., priority 2017, dated 2021).

Columns and labels:
[1] = tested on: IgE antibody in the serum from a WDEIA patient; assay: Epitope mapping (1): peptide array, chemiluminescent measurement of IgE binding using human serum; conditions: 15-amino-acid peptides on array; 2% serum; sera from WDEIA patients 1 to 3 vs healthy individuals 1 and 2; FIG. 1
Description: Epitope mapping was performed by using a library of overlapping peptides (15 amino acids in length) corresponding to the full-length amino acid sequence of ω-5 gliadin from bread wheat (SEQ ID NO: 51).
Each synthesized peptide was shifted by 10 amino acids. In other words, each peptide overlaps with the previous peptide and the next peptide, each by 5 amino acids.
Intavis CelluSpots™ technique was used for preparing a peptide array. Specifically, the peptide array was prepared by the following procedures: (1) synthesizing a target peptide on an amino-modified cellulose disk by using an automated synthesizer (MultiPep RS from Intavis), (2) dissolving said amino-modified cellulose disk to obtain a solution of a peptide bound to cellulose, and (3) spotting said peptide bound to cellulose on a coated slide glass. The detail of each procedure is as follows.
Said peptide array was used to measure whether each peptide fragment is bound by an IgE antibody in the serum from a WDEIA patient due to an antigen-antibody reaction, or not. This measurement was performed in accordance with the following procedures. […]
(7) Chemiluminescence of the peptide that was treated as described in the above (1) to (6) was measured by using Amersham Imager 600.

[2] = tested on: IgE antibody from the healthy subject; assay: Epitope mapping (3): alanine scanning ELISA, healthy subject serum; format: binding, human; conditions: alanine-substituted peptides; sera from healthy individuals 1 and 2; FIG. 3
Description: (§1) The amino acid sequence of SEQ ID NO: 22 and the amino acid sequence of SEQ ID NO: 29 identified in the above-mentioned (B) were subjected to a technique referred to as alanine scanning (Non Patent Literature 1). Specifically, a library of peptide fragments was prepared by a technique similar to that described above in (B), in which the peptide fragments were produced by substituting one amino acid at a time with alanine in each amino acid sequence of […], starting from the amino acid at an amino terminal side. Then, a technique similar to that described above in (B) was used to measure whether each peptide fragment was bound by the IgE antibody in the serum from a patient and a healthy subject, or not. When alanine substitution of an amino acid at a certain position led to loss or reduction of binding activity to the IgE antibody from the patient and development of binding activity to the IgE antibody from the healthy subject, the amino acid was determined to be an amino acid important for expression of inherent antigenicity or an amino acid affecting expression of inherent antigenicity. […] A common sequence important for expression of inherent antigenicity was discovered by this analysis.
(§2) The result of alanine scanning performed on the amino acid sequence of SEQ ID NO: 22 and the result of alanine scanning performed on the amino acid sequence of SEQ ID NO: 29 are shown in FIG. 3, respectively.

[3] = tested on: IgE antibody from the patient; assay: Epitope mapping (3): alanine scanning ELISA, patient serum; format: binding, human; conditions: alanine-substituted peptides; serum from patient 1; FIG. 3
Description: as §1, §2

[4] = tested on: anti-human IgE antibody as a secondary antibody; assay: Epitope mapping (3): alanine scanning ELISA, secondary antibody used alone; format: binding; conditions: alanine-substituted peptides, FIG. 3
Text: FIG. 3 is a diagram showing the result of investigation of positions important for exerting antigenicity in SEQ ID NOs: 22 and 29 by an alanine scanning technique. The number on the horizontal axis denotes a value of coloration intensity at 450 nm measured by an absorption spectrometer (Abs.). In this figure, a double wavy line denotes that a value is not shown, P1 denotes that the serum from patient 1 was used, N1 and N2 denote that the sera from healthy individuals 1 and 2 were used, and 2nd denotes that an anti-human IgE antibody as a secondary antibody was used alone.
as §1, §2

Row | binding of IgE antibody to peptide spot (chemiluminescence) [1] | binding activity to the IgE antibody from the patient (absorbance at 450 nm) [3] | Substance | binding activity to the IgE antibody from the healthy subject (absorbance at 450 nm) [2] | binding activity to the anti-human IgE antibody as the secondary antibody (absorbance at 450 nm) [4]
1 | bound, in a manner specific to a patient | – | SEQ ID NO: 13: peptide of amino acids 161 to 175 of the full-length ω-5 gliadin from bread wheat (SEQ ID NO: 51) (PQQQPPQQHQFPQQQ; epitope) | – | –
2 | bound, in a manner specific to a patient | – | SEQ ID NO: 6: peptide of amino acids 221 to 235 of the full-length ω-5 gliadin from bread wheat (SEQ ID NO: 51) (QQFPQQEFPQQQQFP; epitope) | – | –
3 | – | slightly reduced binding activity | SEQ ID NO: 35: amino acid at position 1 in SEQ ID NO: 22 substituted with alanine (QQFPQAEFPQQQQFP; modified epitope) | developed a relatively low level of binding activity | developed a relatively low level of binding activity
